Measurements taken from patent US4345938A, “Herbicidal 2-haloacetanilides” (Monsanto Company, priority 1980, dated 1982).

Key:
Assay type in all cases: in vivo
Cocklebur = experiment: Pre-emergent herbicidal test, Cocklebur; also: ranges in brackets are in %
Excerpt: (§1) A good grade of top soil is placed in aluminum pans and compacted to a depth of three-eights to one-half inch from the top of the pan. On the top of the soil is placed a number of seeds or vegetative propagules of various plant species. The soil required to level fill the pans after seeding or adding vegetative propagules is weighted into a pan. The soil and a known amount of the active ingredient applied in a solvent or as a wettable powder suspension are thoroughly mixed, and used to cover the prepared pans. After treatment, the pans are moved into a greenhouse bench where they are watered by subirrigation as needed to give adequate moisture for germination and growth.
(§2) Approximately 2 weeks after seeding and treating, the plants were observed and the results recorded. The herbicidal rating was obtained by means of a fixed scale based on the percent injury of each plant species. The ratings are defined as follows: […]

Velvetleaf = experiment: Pre-emergent herbicidal test, Velvetleaf; also: ranges in brackets are in %
Excerpt: as §1, §2

Lambsquarters = experiment: Pre-emergent herbicidal test, Lambsquarters; also: ranges in brackets are in %
Excerpt: as §1, §2

Smartweed = experiment: Pre-emergent herbicidal test, Smartweed; also: ranges in brackets are in %
Excerpt: as §1, §2

Quackgrass = experiment: Pre-emergent herbicidal test, Quackgrass; conditions: Table I; also: ranges in brackets are in %
Excerpt: as §1, §2

Johnsongrass = experiment: Pre-emergent herbicidal test, Johnsongrass; conditions: Table I; also: ranges in brackets are in %
Excerpt: as §1, §2

Downy Brome [1] = experiment: Pre-emergent herbicidal test, Downy Brome; also: ranges in brackets are in %
Excerpt: as §1, §2

Barnyardgrass [2] = experiment: Pre-emergent herbicidal test, Barnyardgrass; also: ranges in brackets are in %
Excerpt: as §1, §2

Sugarbeet = experiment: Pre-emergent herbicidal test, Sugarbeet; conditions: Table II; also: ranges in brackets are in %
Excerpt: as §1, §2
(§3) The compounds were further tested by utilizing the above procedure on the following plant species: […]

Sorghum = experiment: Pre-emergent herbicidal test, Sorghum; conditions: Table II; also: ranges in brackets are in %
Excerpt: as §1, §2, §3

Wild Buckwheat = experiment: Pre-emergent herbicidal test, Wild Buckwheat; conditions: Table II; also: ranges in brackets are in %
Excerpt: as §1, §2, §3

Upland seeded rice = Upland seeded rice greenhouse test, rice safety; conditions: in vivo
Protocol: In another comparative test in the greenhouse, the compound of Example 2 and Compound B were tested in Upland seeded rice. […] In contrast, Compound A, (a commercial rice herbicide), required 0.14 kg/ha (0.125 lb/A) to selectively control the same weed with rice safety also maintained at 1.12 kg/ha resulting in a selectivity factor of at least 8, i.e., less than one-half that of the compound of Example 2.

Sugarbeets = experiment: Sugarbeet greenhouse test, crop tolerance
Protocol: (§4) In the discussion of data below, occasional reference is made to herbicide application rates symbolized as "GR15 " and "GR85 "; these rates are given in kilograms per hectare (kg/ha) which are convertible into pounds per acre (lbs/A) by dividing the kg/ha rate by 1.12.
(§5) In further tests in the greenhouse, the compound of Example 2 was tested for its activity against annual weeds in sugarbeets at test rates within the range of 0.07 to 1.12 kg/ha (0.0625 to 1.0 lb/A). The GR15 and GR85 rates for sugarbeets and the various weeds are shown in Table VI; the selectivity factors for the herbicide against the weeds in sugarbeets are shown in parentheses below the weeds; "NS" means non-selective within the test limits. The following abbreviations are used in the table: barnyardgrass (BYG), wild oats (WO), downy brome (DB); redroot pigweed (RRP), blackgrass (BG), large crabgrass (LCG) and yellow foxtail (YFT).

Barnyardgrass [3] = experiment: Sugarbeet greenhouse test, BYG; conditions: in sugarbeets
Excerpt: as §4
(§6) A further guide to the effectiveness of a chemical as a selective herbicide is the "selectivity factor" ("SF") for a herbicide in given crops and weeds. The selectivity factor is a measure of the relative degree of crop safety and weed injury and is expressed in terms of the GR15 /GR85 ratio, i.e., the GR15 rate for the crop divided by the GR85 rate for the weed, both rates in kg/ha (lb/A.)
as §5

wild oats = experiment: Sugarbeet greenhouse test, WO; conditions: in sugarbeets
Excerpt: as §4, §6, §5

Downy Brome [4] = experiment: Sugarbeet greenhouse test, DB; conditions: in sugarbeets
Excerpt: as §4, §6, §5

redroot pigweed = experiment: Sugarbeet greenhouse test, RRP; conditions: in sugarbeets
Excerpt: as §4, §6, §5

blackgrass = experiment: Sugarbeet greenhouse test, BG; conditions: in sugarbeets
Excerpt: as §4, §6, §5

large crabgrass = experiment: Sugarbeet greenhouse test, LCG; conditions: in sugarbeets
Excerpt: as §4, §6, §5

yellow foxtail = experiment: Sugarbeet greenhouse test, YFT; conditions: in sugarbeets
Excerpt: as §4, §6, §5

CCCCOc1cccc(CC)c1N(CC)C(=O)CCl [Example 2, N-ethyl-2'-n-butoxy-6'-ethyl-2-chloroacetanilide]
Rating, Cocklebur (Cocklebur; Table I, 5.6 kg/h): 0 (0-24)
Rating, Cocklebur (Cocklebur; Table I, 11.2 kg/h): 0 (0-24)
Rating, Cocklebur (Cocklebur; Table II, 0.01 kg/h): 0 (0-24)
Rating, Cocklebur (Cocklebur; Table II, 0.06 kg/h): 0 (0-24)
Rating, Cocklebur (Cocklebur; Table II, 0.28 kg/h): 0 (0-24)
Rating, Cocklebur (Cocklebur; Table II, 1.12 kg/h): 0 (0-24)
Rating, Cocklebur (Cocklebur; Table II, 5.6 kg/h): 1 (25-49)
Rating, Velvetleaf (Velvetleaf; Table I, 5.6 kg/h): 0 (0-24)
Rating, Velvetleaf (Velvetleaf; Table I, 11.2 kg/h): 1 (25-49)
Rating, Velvetleaf (Velvetleaf; Table II, 0.01 kg/h): 0 (0-24)
Rating, Velvetleaf (Velvetleaf; Table II, 0.06 kg/h): 0 (0-24)
Rating, Velvetleaf (Velvetleaf; Table II, 0.28 kg/h): 0 (0-24)
Rating, Velvetleaf (Velvetleaf; Table II, 1.12 kg/h): 0 (0-24)
Rating, Velvetleaf (Velvetleaf; Table II, 5.6 kg/h): 1 (25-49)
Rating, Lambsquarters (Lambsquarters; Table I, 5.6 kg/h): 3 (75-100)
Rating, Lambsquarters (Lambsquarters; Table I, 11.2 kg/h): 3 (75-100)
Rating, Lambsquarters (Lambsquarters; Table II, 0.01 kg/h): 0 (0-24)
Rating, Lambsquarters (Lambsquarters; Table II, 0.06 kg/h): 0 (0-24)
Rating, Lambsquarters (Lambsquarters; Table II, 0.28 kg/h): 0 (0-24)
Rating, Lambsquarters (Lambsquarters; Table II, 1.12 kg/h): 2 (50-74)
Rating, Lambsquarters (Lambsquarters; Table II, 5.6 kg/h): 3 (75-100)
Rating, Smartweed (Smartweed; Table I, 5.6 kg/h): 3 (75-100)
Rating, Smartweed (Smartweed; Table I, 11.2 kg/h): 3 (75-100)
Rating, Smartweed (Smartweed; Table II, 0.01 kg/h): 0 (0-24)
Rating, Smartweed (Smartweed; Table II, 0.06 kg/h): 0 (0-24)
Rating, Smartweed (Smartweed; Table II, 0.28 kg/h): 0 (0-24)
Rating, Smartweed (Smartweed; Table II, 1.12 kg/h): 2 (50-74)
Rating, Smartweed (Smartweed; Table II, 5.6 kg/h): 3 (75-100)
Rating, Quackgrass (Quackgrass; 5.6 kg/h): 3 (75-100)
Rating, Quackgrass (Quackgrass; 11.2 kg/h): 3 (75-100)
Rating, Johnsongrass (Johnsongrass; 5.6 kg/h): 2 (50-74)
Rating, Johnsongrass (Johnsongrass; 11.2 kg/h): 3 (75-100)
Rating, Downy Brome (Downy Brome [1]; Table I, 5.6 kg/h): 3 (75-100)
Rating, Downy Brome (Downy Brome [1]; Table I, 11.2 kg/h): 3 (75-100)
Rating, Downy Brome (Downy Brome [1]; Table II, 0.01 kg/h): 0 (0-24)
Rating, Downy Brome (Downy Brome [1]; Table II, 0.06 kg/h): 1 (25-49)
Rating, Downy Brome (Downy Brome [1]; Table II, 0.28 kg/h): 3 (75-100)
Rating, Downy Brome (Downy Brome [1]; Table II, 1.12 kg/h): 3 (75-100)
Rating, Downy Brome (Downy Brome [1]; Table II, 5.6 kg/h): 3 (75-100)
Rating, Barnyardgrass (Barnyardgrass [2]; Table I, 5.6 kg/h): 3 (75-100)
Rating, Barnyardgrass (Barnyardgrass [2]; Table I, 11.2 kg/h): 3 (75-100)
Rating, Barnyardgrass (Barnyardgrass [2]; Table II, 0.01 kg/h): 1 (25-49)
Rating, Barnyardgrass (Barnyardgrass [2]; Table II, 0.06 kg/h): 3 (75-100)
Rating, Barnyardgrass (Barnyardgrass [2]; Table II, 0.28 kg/h): 3 (75-100)
Rating, Barnyardgrass (Barnyardgrass [2]; Table II, 1.12 kg/h): 3 (75-100)
Rating, Barnyardgrass (Barnyardgrass [2]; Table II, 5.6 kg/h): 3 (75-100)
Rating, Sugarbeet (Sugarbeet; 0.01 kg/h): 0 (0-24)
Rating, Sugarbeet (Sugarbeet; 0.06 kg/h): 0 (0-24)
Rating, Sugarbeet (Sugarbeet; 0.28 kg/h): 1 (25-49)
Rating, Sugarbeet (Sugarbeet; 1.12 kg/h): 2 (50-74)
Rating, Sugarbeet (Sugarbeet; 5.6 kg/h): 2 (50-74)
Rating, Sorghum (Sorghum; 0.01 kg/h): 0 (0-24)
Rating, Sorghum (Sorghum; 0.06 kg/h): 0 (0-24)
Rating, Sorghum (Sorghum; 0.28 kg/h): 1 (25-49)
Rating, Sorghum (Sorghum; 1.12 kg/h): 3 (75-100)
Rating, Sorghum (Sorghum; 5.6 kg/h): 3 (75-100)
Rating, Wild Buckwheat (Wild Buckwheat; 0.01 kg/h): 0 (0-24)
Rating, Wild Buckwheat (Wild Buckwheat; 0.06 kg/h): 0 (0-24)
Rating, Wild Buckwheat (Wild Buckwheat; 0.28 kg/h): 0 (0-24)
Rating, Wild Buckwheat (Wild Buckwheat; 1.12 kg/h): 1 (25-49)
Rating, Wild Buckwheat (Wild Buckwheat; 5.6 kg/h): 2 (50-74)
rate at which rice safety is maintained (Upland seeded rice): ≥ 1.12 kg/ha
GR15 Rate, Sugarbeets (Sugarbeets): 0.56 Kg/Ha
GR85 Rate, BYG (Barnyardgrass [3]): < 0.07 Kg/Ha
selectivity factor, BYG (Barnyardgrass [3]): > 8.0
GR85 Rate, WO (wild oats): 0.28 Kg/Ha
selectivity factor, WO (wild oats): 2.0
GR85 Rate, DB (Downy Brome [4]): 0.14 Kg/Ha
selectivity factor, DB (Downy Brome [4]): 4.0
GR85 Rate, RRP (redroot pigweed): > 1.12 Kg/Ha
selectivity factor, RRP (redroot pigweed): NS (non-selective within the test limits)
GR85 Rate, BG (blackgrass): 0.21 Kg/Ha
selectivity factor, BG (blackgrass): 2.7
GR85 Rate, LCG (large crabgrass): 0.07 Kg/Ha
selectivity factor, LCG (large crabgrass): 8.0
GR85 Rate, YFT (yellow foxtail): < 0.07 Kg/Ha
selectivity factor, YFT (yellow foxtail): > 8.0
